Here are results for three molecules from patent US20210393722A1, “COMPOSITION FOR IMPROVING SKIN BARRIER DAMAGE AND/OR ALLEVIATING SKIN INFLAMMATION, CONTAINING 3,5-DICAFFEOYLQUINIC ACID AS ACTIVE INGREDIENT” (KOREA UNIVERSITY RESEARCH AND BUSINESS FOUNDATION, priority 2018, published 2021).

SMILES strings stand for the structures.

What all share (type): cell-based, human
Test [1] has as its system HaCaT cells. Briefly: Western blot of protein expression in HaCaT cells treated with 3,5-DCQA (Example 7). Particulars: 1 μM 3,5-DCQA. On the procedure:
(§1) HaCaT cells (human keratinocytes) were cultured in Dulbecco's modified Eagle's medium (DMEM) containing 10% fetal bovine serum (FBS) and 1% antibiotic-antimycotic solution at 37° C. in a 5% CO2 incubator. The cell culture medium was replaced with fresh DMEM every 48-72 hours. HaCaT cells within 5-17 passages were plated at a density of 1×10^4 cells per well in an 8-well chamber slide, or at a density of 1×10^6 cells per well in a 6-well culture plate in DMEM containing […] and 1% antibiotic-antimycotic solution. The cells were cultured for 24-48 hours in a 5% CO2 incubator at 37° C. Then, the medium was replaced with DMEM containing 1% fetal bovine serum. Thereafter, the cells were treated for 24 hours with DNCB (5 μM, Sigma-Aldrich, Louis, Mo., USA) or SDS (30 μM, Sigma-Aldrich) along with the AG extract (50 μg) and the PPARδ antagonist GSK0660 (Sigma-Aldrich). In addition, the cells were treated with 1 μM 3,5-dicaffeoylquinic acid (3,5-DCQA). The HaCaT cells were donated by Dr. Sang-Wook Son. All the reagents for cell culture were purchased from Welgene Inc. (Daegu, Korea). The concentrations of all the reagents were final concentrations.
In order to measure the protein expression of TRPV4, PPARδ, AMPK and SPTLC2 in HaCaT cells treated with 3,5-dicaffeoylquinic acid, western blot was performed after treating with the condition of Example 2.

For test [2], the system named is HaCaT cells. The test is described as follows: Immunohistochemical staining of HaCaT cells treated with 3,5-DCQA (Example 8). Particulars: 1 μM 3,5-DCQA. On the procedure:
as §1
In order to measure the protein expression of keratin, involucrin, β-defensin and TNFα in HaCaT cells treated with 3,5-dicaffeoylquinic acid, immunohistochemical staining was performed after treating with the condition of Example 2.
The protein extracts were electrophoresed on 10% polyacrylamide gel and blotted to a nitrocellulose membrane. The nitrocellulose membrane was bound with primary and secondary antibodies sequentially, and then chemiluminescence was exposed to an X-ray film. The density for bands on the X-ray film was analyzed with the Image J program. The HaCaT cells fixed on a slide chamber were immunohistochemically stained with antibodies for keratin, involucrin, defensin and TNFα. Images were taken at 200× magnification, and the densities for the images were analyzed with the Image J program. The results were expressed as mean±SEM. The values were statistically analyzed by unpaired t-test. All the experiments were repeated three times.

Test [3] deals with HaCaT cells. Briefly: Immunocytochemistry of keratin, involucrin, β-defensin 1 and TNFα in HaCaT cells treated with DNCB or SDS with AG extract (Example 4). Particulars: AG extract plus GSK0660. As for the experimental part:
as §1
In order to evaluate the expression of β-defensin 1, a representative β-defensin, together with skin barrier constituents such as keratin and involucrin and the inflammatory cytokine TNFα, immunocytochemistry (ICC) was conducted after treating with the condition of Example 2.
Cells in a chamber slide were fixed with ice-cold methanol for 15 minutes. The fixed cells were treated with a 0.3% hydrogen peroxide (H2O2) solution containing 0.3% normal horse serum for 5 minutes to remove peroxidase activity in the cells. After washing with PBS for 5 minutes, the cells were incubated with diluted normal blocking serum for 20 minutes, followed by treatment with diluted primary antibodies for 1 hour. The primary antibodies for involucrin and TNFα were purchased from Novus (Littleton, Colo. 80120, USA). The primary antibody for β-defensin 1 was purchased from Santa Cruz Biotechnology, Inc. (Dallas, Tex., USA), and the primary antibody for pan-keratin was purchased from Abcam (Cambridge, UK). After washing with PBS, the cells were treated with secondary antibodies for 30 minutes. After washing with PBS, the cells were treated with a premixed Vectastain ABC reagent solution for 30 minutes. […]
The protein extracts were electrophoresed on 10% polyacrylamide gel and blotted to a nitrocellulose membrane. […] The density for bands on the X-ray film was analyzed with the Image J program. […] Images were taken at 200× magnification, and the densities for the images were analyzed with the Image J program. The results were expressed as mean±SEM. The values were statistically analyzed by unpaired t-test. […]

The subject of test [4] is HaCaT cells. The test is described as follows: Western blot of protein expression in HaCaT cells treated with DNCB or SDS with AG extract (Example 3). As to conditions: GSK0660 along with the AG extract. On the procedure: as §1
For evaluation of the protein expression levels of PPARδ, AMPK and SPTLC2 in the HaCaT cells treated with SDS or DNCB together with AG, western blot was conducted after treating with the conditions of Example 2.
The concentration of the proteins in the sample was estimated by the Bradford method. 10 μg of the extracted proteins were loaded onto 10% sodium dodecyl sulfate (SDS)-polyacrylamide gel, and protein blotting on nitrocellulose membrane was performed for 90 minutes. The membrane was blocked overnight with 5% skim milk and washed 3 times with TBS-T for 10 minutes. Primary antibodies were allowed to bind to the membrane at room temperature for 2 hours. […] Images were processed manually with Kodak GBX developer and fixer reagents (Carestream Health, Inc., Rochester, N.Y., USA) and were analyzed using the Image J program. β-Actin was used as a internal control group for normalization of the loaded proteins.

For test [5], the system named is HaCaT cells. The test is described as follows: Western blot for TRPV4, PPARδ and AMPK in HaCaT cells treated with antagonists for TRPV4, PPARδ or AMPK (Example 6). Particulars: HaCaT treated with antagonist. On the procedure: (§2) Western blot was conducted for TRPV4, AMPK and PPARδ in HaCaT cells treated with antagonists for TRPV4, PPARδ and AMPK. The HaCaT cells fixed on a slide chamber were immunohistochemically stained with antibodies for keratin, involucrin, defensin and TNFα. Images were taken at 200× magnification, and the densities for the images were analyzed with the Image J program. The protein extracts were electrophoresed on 10% polyacrylamide gel and blotted to a nitrocellulose membrane. The nitrocellulose membrane was bound with primary and secondary antibodies sequentially, and then chemiluminescence was exposed to an X-ray film. The density for bands on the X-ray film was analyzed with the Image J program. The results were expressed as mean±SEM. The values were statistically analyzed by unpaired t-test. All the experiments were repeated three times.
To determine the priority of major regulators which are TRPV4, PPARδ and AMPK, the protein expression level of TRPV4, PPARδ and AMPK in HaCaT cells treated with antagonists for TRPV4, PPARδ or AMPK was measured by western blot.

Test [6] deals with HaCaT cells. Briefly: Immunohistochemical staining of HaCaT cells treated with antagonists for TRPV4 and AMPK (Example 5). As to conditions: HaCaT treated with antagonist; compared to the control group. As for the experimental part:
To investigate the effect of TRPV4 and AMPK on the expression of biomarkers related to skin barrier constituents, defense and inflammation, the protein expression for keratin, involucrin, β-defensin and TNFα was evaluated by immunohistochemical staining of HaCaT cells treated with antagonists for TRPV4 and AMPK.
as §2

Consider `O=C(/C=C/c1ccc(O)c(O)c1)O[C@@H]1C[C@](O)(C(=O)O)C[C@@H](OC(=O)/C=C/c2ccc(O)c(O)c2)[C@H]1O` [3,5-DCQA, 3,5-dicaffeoylquinic acid], for which, in test [1], the “protein expression of AMPK” value was “increased”, the “protein expression of PPARδ” value is reported as “increased” and the “protein expression of SPTLC2” value is reported as “increased”. Moreover, in test [2], the “expression of TNFα” value is “decreased”, the “protein expression of involucrin” value is given as “increased”, the “protein expression of keratin” value is “increased” and the “protein expression of β-defensin 1” value is reported as “increased”.

In the case of `COC(=O)c1sccc1S(=O)(=O)Nc1ccc(Nc2ccccc2)cc1OC` [GSK0660], in test [3], the “AG extract-increased involucrin protein expression” value was “offset”, the “AG extract-increased keratin protein expression” value was “offset”, the “AG extract-increased β-defensin 1 protein expression” value was “offset” and the “effect of the AG extract on TNFα expression” value is given as “offset”. Also, in test [4], the “AG extract-induced increase in the expression of P-AMPK” value was “reduced”, the “AG extract-induced increase in the expression of PPARδ” value is “reduced” and the “AG extract-induced increase in the expression of SPTLC2” value was “reduced”. In test [5], the “protein expression level for PPARδ” value is recorded as “lowered”, the “protein expression level for TRPV4” value is reported as “did not change” and the “protein expression level for p-AMPK” value was “lowered”.

As to `c1cc(-c2cnn3cc(-c4ccc(OCCN5CCCCC5)cc4)cnc23)ccn1` [compound C], in test [6], the “protein expression of TNFα” value is given as “increased”, the “protein expression of involucrin” value is on record as “decreased significantly”, the “protein expression of keratin” value was “decreased significantly” and the “protein expression of β-defensin 1” value is “decreased significantly”. For the same molecule, in test [5], the “protein expression level for PPARδ” value is given as “did not affect”, the “protein expression level for TRPV4” value was “did not affect” and the “protein expression level for p-AMPK” value is listed as “decreased”.
